# Source: patent publication US9006250B2, “4-amino-6-(heterocyclic)picolinates and 6-amino-2-(heterocyclic)pyrimidine-4-carboxylates and their use as herbicides” (Dow AgroSciences, LLC, priority 2013, dated 2015)
# Tested on: EPHHL: wild poinsettia (Euphorbia heterophylla)
# Experiment: Post-Emergent Test II herbicidal activity
# Format: in vivo
# Conditions: post-emergence, 336 h, 35 g ai/ha, 14 days, read-out: Visual Growth Reduction (%) 14 Days After Application EPHHL
# Procedure: (§1) Post-Emergent Test II: Seeds or nutlets of the desired test plant species were planted in Sun Gro Metro-Mix® 360 planting mixture, which typically has a pH of 6.0 to 6.8 and an organic matter content of about 30 percent, in plastic pots with a surface area of 64 square centimeters. When required to ensure good germination and healthy plants, a fungicide treatment and/or other chemical or physical treatment was applied. The plants were grown for 7-21 d in a greenhouse with an approximate 15 h photoperiod which was maintained at about 23-29° C. during the day and 22-28° C. during the night. Nutrients and water were added on a regular basis and supplemental lighting was provided with overhead metal halide 1000-Watt lamps as necessary. The plants were employed for testing when they reached the first or second true leaf stage.
# (§2) A weighed amount, determined by the highest rate to be tested, of each test compound was placed in a 25 mL glass vial and was dissolved in 4 mL of a 97:3 v/v mixture of acetone and DMSO to obtain concentrated stock solutions. […] The concentrated stock solutions obtained were diluted with 20 mL of an aqueous mixture containing acetone, water, isopropyl alcohol, DMSO, Atplus 411F crop oil concentrate, and Triton® X-155 surfactant in a 48.5:39:10:1.5:1.0:0.02 v/v ratio to obtain spray solutions containing the highest application rates. Additional application rates were obtained by serial dilution of 12 mL of the high rate solution into a solution containing 2 mL of 97:3 v/v mixture of acetone and DMSO and 10 mL of an aqueous mixture containing acetone, water, isopropyl alcohol, DMSO, Atplus 411F crop oil concentrate, and Triton X®-155 surfactant in a 48.5:39:10:1.5:1.0:0.02 v/v ratio to obtain ½×, ¼×, ⅛× and 1/16× rates of the high rate. Compound requirements are based upon a 12 mL application volume at a rate of 187 liters per hectare (L/ha). Formulated compounds were applied to the plant material with an overhead Mandel track sprayer equipped with 8002E nozzles calibrated to deliver 187 L/ha over an application area of 0.503 square meters at a spray height of 18 inches […] above the average plant canopy height. Control plants were sprayed in the same manner with the solvent blank.
# (§3) The treated plants and control plants were placed in a greenhouse as described above and watered by subirrigation to prevent wash-off of the test compounds. After 14 d, the condition of the test plants as compared with that of the untreated plants was determined visually and scored on a scale of 0 to 100 percent where 0 corresponds to no injury and 100 corresponds to complete kill.
row,SMILES,pest or weed control at 35 g/ha
1,COC(=O)c1nc(-c2ccc3nonc3c2Cl)cc(N)c1Cl [Compound 18],0 to 29%

# Same assay, conditions: post-emergence, 336 h, 70 g ai/ha, 14 days, read-out: Visual Growth Reduction (%) 14 Days After Application EPHHL
row,SMILES,pest or weed control at 70 g/ha
1,COC(=O)c1nc(-c2ccc3nonc3c2Cl)cc(N)c1Cl [Compound 18],0 to 29%

# Same assay, conditions: post-emergence, 336 h, 140 g ai/ha, 14 days, read-out: Visual Growth Reduction (%) 14 Days After Application EPHHL
row,SMILES,pest or weed control at 140 g/ha
1,COC(=O)c1nc(-c2ccc3nonc3c2Cl)cc(N)c1Cl [Compound 18],30 to 44%

# Tested on: HELAN: sunflower (Helianthus annuus)
# Experiment: Post-Emergent Test II herbicidal activity
# Format: in vivo
# Conditions: post-emergence, 336 h, 35 g ai/ha, 14 days, read-out: Visual Growth Reduction (%) 14 Days After Application HELAN
# Procedure: as §1, §2, §3
row,SMILES,pest or weed control at 35 g/ha
1,COC(=O)c1nc(-c2ccc3nonc3c2Cl)cc(N)c1Cl [Compound 18],0 to 29%

# Same assay, conditions: post-emergence, 336 h, 70 g ai/ha, 14 days, read-out: Visual Growth Reduction (%) 14 Days After Application HELAN
row,SMILES,pest or weed control at 70 g/ha
1,COC(=O)c1nc(-c2ccc3nonc3c2Cl)cc(N)c1Cl [Compound 18],30 to 44%

# Same assay, conditions: post-emergence, 336 h, 140 g ai/ha, 14 days, read-out: Visual Growth Reduction (%) 14 Days After Application HELAN
row,SMILES,pest or weed control at 140 g/ha
1,COC(=O)c1nc(-c2ccc3nonc3c2Cl)cc(N)c1Cl [Compound 18],60 to 74%

# Tested on: ORYSA: rice (Oryza sativa)
# Experiment: Post-Emergent Test II herbicidal activity
# Format: in vivo
# Conditions: post-emergence, 336 h, 35 g ai/ha, 14 days, read-out: Visual Growth Reduction (%) 14 Days After Application ORYSA
# Procedure: as §1, §2, §3
row,SMILES,pest or weed control at 35 g/ha
1,COC(=O)c1nc(-c2ccc3nonc3c2Cl)cc(N)c1Cl [Compound 18],0 to 29%

# Same assay, conditions: post-emergence, 336 h, 70 g ai/ha, 14 days, read-out: Visual Growth Reduction (%) 14 Days After Application ORYSA
row,SMILES,pest or weed control at 70 g/ha
1,COC(=O)c1nc(-c2ccc3nonc3c2Cl)cc(N)c1Cl [Compound 18],0 to 29%

# Same assay, conditions: post-emergence, 336 h, 140 g ai/ha, 14 days, read-out: Visual Growth Reduction (%) 14 Days After Application ORYSA
row,SMILES,pest or weed control at 140 g/ha
1,COC(=O)c1nc(-c2ccc3nonc3c2Cl)cc(N)c1Cl [Compound 18],0 to 29%

# Tested on: SETFA: giant foxtail (Setaria faberi)
# Experiment: Post-Emergent Test II herbicidal activity
# Format: in vivo
# Conditions: post-emergence, 336 h, 35 g ai/ha, 14 days, read-out: Visual Growth Reduction (%) 14 Days After Application SETFA
# Procedure: as §1, §2, §3
row,SMILES,pest or weed control at 35 g/ha
1,COC(=O)c1nc(-c2ccc3nonc3c2Cl)cc(N)c1Cl [Compound 18],0 to 29%

# Same assay, conditions: post-emergence, 336 h, 70 g ai/ha, 14 days, read-out: Visual Growth Reduction (%) 14 Days After Application SETFA
row,SMILES,pest or weed control at 70 g/ha
1,COC(=O)c1nc(-c2ccc3nonc3c2Cl)cc(N)c1Cl [Compound 18],0 to 29%

# Same assay, conditions: post-emergence, 336 h, 140 g ai/ha, 14 days, read-out: Visual Growth Reduction (%) 14 Days After Application SETFA
row,SMILES,pest or weed control at 140 g/ha
1,COC(=O)c1nc(-c2ccc3nonc3c2Cl)cc(N)c1Cl [Compound 18],0 to 29%

# Tested on: TRZAS: wheat, spring (Triticum aestivum)
# Experiment: Post-Emergent Test II herbicidal activity
# Format: in vivo
# Conditions: post-emergence, 336 h, 35 g ai/ha, 14 days, read-out: Visual Growth Reduction (%) 14 Days After Application TRZAS
# Procedure: as §1, §2, §3
row,SMILES,pest or weed control at 35 g/ha
1,COC(=O)c1nc(-c2ccc3nonc3c2Cl)cc(N)c1Cl [Compound 18],0 to 29%

# Same assay, conditions: post-emergence, 336 h, 70 g ai/ha, 14 days, read-out: Visual Growth Reduction (%) 14 Days After Application TRZAS
row,SMILES,pest or weed control at 70 g/ha
1,COC(=O)c1nc(-c2ccc3nonc3c2Cl)cc(N)c1Cl [Compound 18],0 to 29%

# Same assay, conditions: post-emergence, 336 h, 140 g ai/ha, 14 days, read-out: Visual Growth Reduction (%) 14 Days After Application TRZAS
row,SMILES,pest or weed control at 140 g/ha
1,COC(=O)c1nc(-c2ccc3nonc3c2Cl)cc(N)c1Cl [Compound 18],0 to 29%

# Tested on: ZEAMX: maize, corn (Zea mays)
# Experiment: Post-Emergent Test II herbicidal activity
# Format: in vivo
# Conditions: post-emergence, 336 h, 35 g ai/ha, 14 days, read-out: Visual Growth Reduction (%) 14 Days After Application ZEAMX
# Procedure: as §1, §2, §3
row,SMILES,pest or weed control at 35 g/ha
1,COC(=O)c1nc(-c2ccc3nonc3c2Cl)cc(N)c1Cl [Compound 18],0 to 29%

# Same assay, conditions: post-emergence, 336 h, 70 g ai/ha, 14 days, read-out: Visual Growth Reduction (%) 14 Days After Application ZEAMX
row,SMILES,pest or weed control at 70 g/ha
1,COC(=O)c1nc(-c2ccc3nonc3c2Cl)cc(N)c1Cl [Compound 18],0 to 29%

# Same assay, conditions: post-emergence, 336 h, 140 g ai/ha, 14 days, read-out: Visual Growth Reduction (%) 14 Days After Application ZEAMX
row,SMILES,pest or weed control at 140 g/ha
1,COC(=O)c1nc(-c2ccc3nonc3c2Cl)cc(N)c1Cl [Compound 18],0 to 29%
